pIC50: −log10 of the molar value.
Key:
DNMT3a [1] = test: Quantitative RT-PCR of DNMT3a mRNA in MV4-11 cells; type: cell-based; conditions: 10 μM
Protocol: (§1) Cell Cycle and Apoptosis Analysis: MV4-11, ML-1, HL-60 and K562 leukemia cell lines were cultured in RPMI medium (VWR International, Inc., West Chester, Pa.) supplemented with 10% fetal bovine serum (Invitrogen, Carlsbad, Calif.) and 1% (v/v) penicillin/streptomycin (Invitrogen Life Technologies; Carlsbad, Calif.) antibiotic solution at 37° C. in an incubator under 5% CO2 atmosphere. For the ex-vivo studies, mononuclear cells obtained from bone marrow (BM) of patient with AML were prepared by Ficoll-Hypaque (Nygaard) gradient centrifugation and cultured with serum-free expansion medium (SFEM) (StemCell technologies, Vancouver, BC) supplemented with GM-CSF (50 ng/ml), IL-3 (20 ng/ml), IL-6 (20 ng/ml) and SCF ([…]). […] The cell cycle and apoptosis of MV4-11 cells was analyzed on a BD FACS Calibur (Beckman Coulter, Fullerton, Calif.) according to the standard protocol provided by the manufacturer.
(§2) Quantitative RT-PCR was used to quantify the mRNA levels of DNMT1, DNMT3a, DNMT3b, p15INK4B and p21. […] Quantitative real-time PCR reactions were performed in triplicate using Taqman gene expression assay (Applied Biosystems) with an ABI prism 7700 detector (Applied Biosystems). The target gene values were normalized to the values of internal control GAPDH or 18 S, and expressed as relative percent change (100×2^(˜ΔΔCt)) over non-treated samples.

[2] = Solubility of curcumin in different PEGs and temperatures; type: physicochemical
Protocol: The pharmaceutical compositions may be prepared by dissolving solid curcumin in an excipient. […] In one embodiment, the mixture is stirred at an elevated temperature until a homogenous solution is obtained. For example, the mixture may be heated to a temperature within the range from about 30° C. to about 150° C.; from about 50° C. to about 120° C.; from about 60° C. to about 100° C. […]

DNMT3a [3] = test: Western blot of DNMT3a protein in MV4-11 cells; type: cell-based
Protocol: (§3) Cell Cycle and Apoptosis Analysis: MV4-11, ML-1, HL-60 and K562 leukemia cell lines were cultured in RPMI medium (VWR International, Inc., West Chester, Pa.) supplemented with 10% fetal bovine serum (Invitrogen, Carlsbad, Calif.) and 1% (v/v) penicillin/streptomycin (Invitrogen Life Technologies; Carlsbad, Calif.) antibiotic solution at 37° C. in an incubator under 5% CO2 atmosphere. […] The cell cycle and apoptosis of MV4-11 cells was analyzed on a BD FACS Calibur (Beckman Coulter, Fullerton, Calif.) according to the standard protocol provided by the manufacturer.
(§4) Cells or tumor tissues were homogenized and lysed in ice-cold lysis buffer (20 mM, pH 7.0 HEPES, 150 mM NaCl, 0.1% NP40 supplemented with 1 mM β-glycerophosphate, 1 mM Na3VO4, 1 mM NaF, 1 mM benzamide and 1 mM phenylmethylsulfonyl fluoride) with protease inhibitors (Protease Inhibitor cocktail Set III, Calbiochem-Novabiochem Corporation, La Jolla, Calif.), and incubated on ice for 20 mM. […] The immunoblotted proteins were detected by ECL reagent (GE Healthcare Bio-Sciences Corp., Piscataway, N.J.).

in vivo = conditions: CD2F1, mouse, in vivo
Text: Extracts of bio-matrices were subjected to HPLC mass spectrometric analysis.

DNMT1 [4] = test: DNMT1 mRNA and protein in MV4-11 engrafted tumor tissues; type: in vivo; conditions: MV4-11 engrafted mice, curcumin i.p. 100 mg/kg
Protocol: Cells or tumor tissues were homogenized and lysed in ice-cold lysis buffer (20 mM, pH 7.0 HEPES, 150 mM NaCl, 0.1% NP40 supplemented with 1 mM β-glycerophosphate, 1 mM Na3VO4, 1 mM NaF, 1 mM benzamide and 1 mM phenylmethylsulfonyl fluoride) with protease inhibitors (Protease Inhibitor cocktail Set III, Calbiochem-Novabiochem Corporation, La Jolla, Calif.), and incubated on ice for 20 mM. The lysate was centrifuged at 12,000 g for […] at 4° C. Proteins in the supernatants were resolved on 4-15% SDS-polyacrylamide gradient gels, and then transferred onto nitrocellulose membranes, incubated with appropriate antibodies and subjected to Western blotting. The immunoblotted proteins were detected by ECL reagent (GE Healthcare Bio-Sciences Corp., Piscataway, N.J.).
Quantitative RT-PCR was used to quantify the mRNA levels of DNMT1, DNMT3a, DNMT3b, p15INK4B and p21. Total RNA was extracted with Trizol reagent (Invitrogen, Carlsbad, Calif.) and reverse transcribed by reverse transcriptase (Invitrogen). Quantitative real-time PCR reactions were performed in triplicate using Taqman gene expression assay (Applied Biosystems) with an ABI prism 7700 detector (Applied Biosystems). The target gene values were normalized to the values of internal control GAPDH or 18 S, and expressed as relative percent change (100×2^(˜ΔΔCt)) over non-treated samples. […]

[5] = In-vitro stability of curcumin in mouse plasma at 37° C; type: in vitro ADME
Text: Therefore, all mouse blood and plasma samples have to be processed on ice to avoid potential degradation for its pharmacokinetic studies.

DNMT1 [6] = test: Ex vivo DNMT1 mRNA and protein in AML patient primary blast cells; type: cell-based, human
Protocol: as §3, §4
Quantitative RT-PCR was used to quantify the mRNA levels of DNMT1, DNMT3a, DNMT3b, p15INK4B and p21. […] Quantitative real-time PCR reactions were performed in triplicate using Taqman gene expression assay (Applied Biosystems) with an ABI prism 7700 detector (Applied Biosystems). […]

DNMT1 [7] = test: Western blot of DNMT1 protein in leukemia cells; type: cell-based
Protocol: as §3, §4

DNMT1 [8] = test: Quantitative RT-PCR of DNMT1 transcripts in MV4-11 cells; type: cell-based; parameters: dose or concentration left out as unconfirmed; conditions: curcumin
Protocol: as §1, §2

MV4-11 cells = test: Cell viability / anti-proliferation; type: cell-based
DNMT3b [9] = test: Western blot of DNMT3b protein in MV4-11 cells; type: cell-based
Protocol: as §3, §4

DNMT3b [10] = test: Quantitative RT-PCR of DNMT3b mRNA in MV4-11 cells; type: cell-based; conditions: 10 μM
Protocol: as §1, §2

HL-60 cells = test: Cell viability / anti-proliferation; type: cell-based

COc1cc(/C=C/C(=O)CC(=O)/C=C/c2ccc(O)c(OC)c2)ccc1O [curcumin]
DNMT3a mRNA level, % of the control (DNMT3a [1]; 48 h): 50% | DNMT3a mRNA level, % of the control (DNMT3a [1]; 72 h): 20% | amount of curcumin that can dissolve ([2]; in 1 mL PEG 400 at 100° C): about 200 mg | Final Conc. 100° C. ([2]; solubility in PEG 200, 100° C): 193.1 mg/mL | Final Conc. 100° C. ([2]; solubility in PEG 300, 100° C): 252.3 mg/mL | Final Conc. 60° C. ([2]; solubility in PEG 400, 60° C): 131.4 mg/mL | Final Conc. 100° C. ([2]; solubility in PEG 400, 100° C): 195 mg/mL | Final Conc. @ RT ([2]; solubility in PEG 400, RT): 42.7 mg/mL | Final Conc. 100° C. ([2]; solubility in PEG 500, 100° C): 218.9 mg/mL | Final Conc. 60° C. ([2]; solubility in PEG 600, 60° C): 136.0 mg/mL | Final Conc. 100° C. ([2]; solubility in PEG 600, 100° C): 241.8 mg/mL | Final Conc. @ RT ([2]; solubility in PEG 600, RT): 42.0 mg/mL | DNMT3a protein level reduction (DNMT3a [3]): 50% | concentration at 10 min (in vivo): 1620 ng/mL | concentration at 20 min (in vivo): 1620 ng/mL | concentration at 30 min (in vivo): 2450 ng/mL | concentration at 45 min (in vivo): 661 ng/mL | concentration at 60 min (in vivo): 448 ng/mL | concentration at 90 min (in vivo): 135 ng/mL | concentration at 120 min (in vivo): 231 ng/mL | concentration at 240 min (in vivo): 169 ng/mL | concentration at 480 min (in vivo): 58.3 ng/mL | mRNA level of DNMT1 in engrafted tissues (DNMT1 [4]): significantly decreases | protein level of DNMT1 in engrafted tissues, decrease (DNMT1 [4]): 50% | half-life [5]: 23.6 min | curcumin level (below detection limit) ([5]; by 4 hour): < 1 ng/mL | curcumin decomposed ([5]; in 2 hours): more than 97% | DNMT1 mRNA (DNMT1 [6]): down-regulate | DNMT1 protein level (DNMT1 [6]): down-regulate | DNMT1 protein level decrease (DNMT1 [7]; ML-1 cells): 50% | DNMT1 protein level (DNMT1 [7]; MV4-11 cells, 10 μM): completely depleted | decrease in the level of DNMT1 transcripts compared to untreated control (DNMT1 [8]; 48 hours): 70% | decrease in the level of DNMT1 transcripts compared to untreated control (DNMT1 [8]; 72 hours): 90% | pIC50 (MV4-11 cells; Homo sapiens, MV4-11): 4.82 to 5.00 | cell viability decreased to (MV4-11 cells; MV4-11 cells (FIG. 13B)): 60-70% | DNMT3b protein level reduction (DNMT3b [9]): 50% | DNMT3b mRNA level, % of the control (DNMT3b [10]; 48 h): 40% | DNMT3b mRNA level, % of the control (DNMT3b [10]; 72 h): 10% | cell viability decreased to (HL-60 cells; HL-60 cells (FIG. 13B)): 60-70% | pIC50 (HL-60 cells; Homo sapiens, HL-60): 4.82 to 5.00
